In patent US20240246920A1, “TRIAZOLE DERIVATIVES WITH ANTIFUNGAL ACTIVITY” (King's College London, priority 2020, published 2024):
≈ marks a conversion by molar mass, not a printed value. Where two headings read alike, the source gives them in different places.

Tests used:
C. glabrata NCPF8018 = assay: Candida panel MIC, serial dilution in 96-well plates; assay type: cell-based, Candida glabrata; details: Nakaseomyces glabratus
Method in brief: (§1)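 MIC taken as lowest concentration inhibiting growth ≥50% relative to drug-free control, from OD530 after 24 hours at 37° C. Fungi at 0.5-5×10^5/mL were exposed to serially diluted compound in RPMI 1640/MOPS/2% glucose medium adjusted to pH 7.0.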

C. parapsilosis NCPF3209 = assay: microbe, parasite or virus in culture; assay type: cell-based, Candida parapsilosis; details: Lodderomyces parapsilosis
Method in brief: as §1

Candida auris TDG2211 = assay: microbe, parasite or virus in culture; assay type: cell-based; details: Candidozyma auris
Method in brief: (§2)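 MIC is the lowest concentration inhibiting growth by ≥50% relative to the drug-free control, read at OD530 nm after 24 hours at 37° C. Fungi were seeded at 0.5-5×10^5/mL in MOPS-buffered RPMI 1640 with 2% glucose, pH 7.0; compounds came from DMSO solutions diluted in media.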

Candida auris TDG2506 = assay: microbe, parasite or virus in culture; assay type: cell-based; details: Candidozyma auris
Method in brief: as §2

C. auris TDG1912 = assay: Candida panel MIC, serial dilution in 96-well plates; assay type: cell-based; details: Candidozyma auris, TDG1912; Table 4; 24 hours, ≥50% inhibition; read-out: MIC C. auris TDG1912
Method in brief: (§3)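 Broth microdilution in RPMI 1640/MOPS/2% glucose, pH 7.0, compound serially diluted from 128 to 0.25 μg/mL. Inoculum 0.5-5×10^5/mL from overnight 37 °C cultures; plates incubated 24 h at 37 °C. Growth read at OD530; MIC is lowest concentration giving ≥50% inhibition versus drug-free growth control.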

C. tropicalis NCPF8760 = assay: as above; assay type: cell-based
Method in brief: as §3

Candida auris TDG1102 = assay: as above; assay type: cell-based; details: Candidozyma auris, TDG1102; Table 4, extended panel; 24 hours, ≥50% inhibition; read-out: MIC Candida auris TDG1102
Method in brief: as §3

Candida auris TDG2512 = assay: as above; assay type: cell-based; details: Candidozyma auris, TDG2512; Table 4, extended panel; 24 hours, ≥50% inhibition; read-out: MIC Candida auris TDG2512
Method in brief: as §3

C. albicans 3363 = assay: Candida albicans panel MIC; assay type: cell-based; details: Table 6, Candida albicans panel
Method in brief: (§4)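 Broth microdilution in RPMI 1640 with MOPS and 2% glucose, pH 7.0; compounds serially diluted from 128 to 0.25 μg/mL. Inoculum 0.5-5×10^5/mL, 24 h at 37° C. MIC is the lowest concentration giving ≥50% growth inhibition versus the drug-free control, read at OD530.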

C. albicans 3645 = assay: Candida albicans panel MIC; assay type: cell-based; details: Table 6, Candida albicans panel
Method in brief: as §4

C. albicans 3880 = assay: Candida albicans panel MIC; assay type: cell-based; details: Table 6, Candida albicans panel
Method in brief: as §4

C. albicans 3881 = assay: Candida albicans panel MIC; assay type: cell-based; details: Table 6, Candida albicans panel
Method in brief: as §4

C. albicans 3882 = assay: Candida albicans panel MIC; assay type: cell-based; details: Table 6, Candida albicans panel
Method in brief: as §4

C. albicans 3990 = assay: Candida albicans panel MIC; assay type: cell-based; details: Table 6, Candida albicans panel
Method in brief: as §4

C. albicans 8112 = assay: Candida albicans panel MIC; assay type: cell-based; details: Table 6, Candida albicans panel
Method in brief: as §4

[1] = tested on: Aspergillus fumigatus ATCC 10894; assay: Aspergillus panel MIC; assay type: cell-based; details: Table 8
Protocol: (§5) Starter cultures of fungal strains to be tested were grown in 3 mL of RPMI 2% glucose media incubated at 37° C. with shaking at 200 rpm overnight. The culture media used was 900 mL H2O; 10.4 g RPMI 1640 (with L-glutamine and a pH indicator but without bicarbonate); 34.5 g MOPS and 18 g glucose. The pH of the media was adjusted to 7.0 with 1 M sodium hydroxide.
(§6) Solutions of the compound to be tested were prepared by dissolving the compound in DMSO and subsequently into media to the desired concentrations. 200 μL of compound solution was then added to the wells of the 96-well plate using a serial dilution method row-by row of the plate to give a compound concentration gradient across the plate of from 128 μg/mL to 0.25 μg/mL. The last two rows of each plate were control rows containing the culture media alone and the media plus fungi.
(§7) The fungi starter cultures were diluted 1:10 in water in cuvettes. This was then further diluted to an optical density (OD600) of 0.01 in media. 100 μL of the fungi was added to each well giving a starting concentration of fungus of 0.5-5×10^5/mL. One species of fungus was used on each plate. The plates were then held at 37° C. for 24 hours.
(§8) A plate reader was used to measure growth in each well at OD530 nm and the MIC was determined for each test compound. The MIC is defined as the lowest concentration giving rise to inhibition of ≥50% of that of the drug-free control well containing the fungus and media.
(§9) The compound of Example 2 (which corresponds to compound number 2) was tested against a panel of Aspergillus strains using a method analogous to that described above for the Candida Panel.

[2] = tested on: Aspergillus fumigatus ATCC 13073; assay: Aspergillus panel MIC; assay type: cell-based; details: Table 8
Protocol: as §5, §6, §7, §8, §9

[3] = tested on: Aspergillus fumigatus ATCC 16424; assay: Aspergillus panel MIC; assay type: cell-based; details: Table 8
Protocol: as §5, §6, §7, §8, §9

C. auris strain TDG1912 = assay: Galleria mellonella infection model, larval survival; assay type: in vivo; details: G. mellonella infected with C. auris TDG1912; survival over 120 hours
Protocol: The effects of test compounds in-vivo was assessed using a Galleria mellonella infection model.
G. mellonella were injected in a proleg with 10 μL of C. auris strain TDG1912 (OD4) at a concentration of 1×10^6 cfu/10 μL using a Hamilton syringe and left for 30 minutes to recover from injection and to allow infection to begin. The G. mellonella were then injected with 10 μL of the compound of the invention at either 50 mg/kg (10% DMSO) or 20 mg/kg (4% DMSO) or PBS containing 10% DMSO as an infection-only control. 10 larvae were selected for each treatment, and the experiment was repeated 3 times for the test compound and fluconazole. Survival of larvae was monitored for a 5 day period and results are presented as % survival over 120 hours (see FIG. 1).

[4] = tested on: C. auris (e.g. TDG1912, TDG2506 or 8984); assay: microbe, parasite or virus in culture; assay type: cell-based, Candida auris; details: Candidozyma auris; efflux pump table; read-out: MIC Fluconazole, C. auris (e.g. TDG1912, TDG2506 or 8984)

OC(Cn1cncn1)(Cn1cncn1)c1ccc(F)cc1F [Fluconazole, fluconazole, reference compound]
MIC (C. glabrata NCPF8018; NCPF8018, read-out: MIC C. Glabrata NCPF8018): 0.5 to 4 µg/mL (≈ 1.63 to 13.1 µM)
MIC (C. glabrata NCPF8018; NCPF8018, read-out: MIC Fluconazole, C. glabrata 8018): > 128 µg/mL
MIC (C. glabrata NCPF8018; NCPF8018, Table 4, common panel, 24 hours, ≥50% inhibition, read-out: MIC C. glabrata NCPF8018): 0.5 to 4 µg/mL (≈ 1.63 to 13.1 µM)
MIC (C. parapsilosis NCPF3209; NCPF3209, read-out: MIC C. Parapsilosis NCPF3209): ≤ 0.25 µg/mL
MIC (C. parapsilosis NCPF3209; NCPF3209, read-out: MIC Fluconazole, C. parapsilosis 3209): 0.5 µg/mL (≈ 1.63 µM)
MIC (C. parapsilosis NCPF3209; NCPF3209, Table 4, common panel, 24 hours, ≥50% inhibition, read-out: MIC C. parapsilosis NCPF3209): ≤ 0.25 µg/mL
MIC (Candida auris TDG2211; TDG2211, read-out: MIC C. auris 2211): 16 to 128 µg/mL (≈ 52.2 to 418 µM)
MIC (Candida auris TDG2211; TDG2211, Table 4, extended panel, 24 hours, ≥50% inhibition, read-out: MIC Candida auris TDG2211): 64 µg/mL (≈ 209 µM)
MIC (Candida auris TDG2506; TDG2506, read-out: MIC C. auris 2506): > 128 µg/mL
MIC (Candida auris TDG2506; TDG2506, Table 4, extended panel, 24 hours, ≥50% inhibition, read-out: MIC Candida auris TDG2506): > 128 µg/mL
MIC (C. auris TDG1912): > 128 µg/mL
MIC (C. tropicalis NCPF8760; NCPF8760, Table 4, common panel, 24 hours, ≥50% inhibition, read-out: MIC C. tropicalis NCPF8760): 4 to 8 µg/mL (≈ 13.1 to 26.1 µM)
MIC (C. tropicalis NCPF8760; NCPF8760, read-out: MIC C. Tropicalis NCPF8760): 4 to 8 µg/mL (≈ 13.1 to 26.1 µM)
MIC (Candida auris TDG1102): 64 µg/mL (≈ 209 µM)
MIC (Candida auris TDG2512): 16 µg/mL (≈ 52.2 µM)
MIC (C. albicans 3363): 8 µg/mL (≈ 26.1 µM)
MIC (C. albicans 3645): ≤ 0.125 µg/mL
MIC (C. albicans 3880): 16 µg/mL (≈ 52.2 µM)
MIC (C. albicans 3881): 8 µg/mL (≈ 26.1 µM)
MIC (C. albicans 3882): 16 µg/mL (≈ 52.2 µM)
MIC (C. albicans 3990): 8 µg/mL (≈ 26.1 µM)
MIC (C. albicans 8112): 0.125 µg/mL (≈ 0.408 µM)
Minimum inhibitory concentration Aspergillus fumigatus ATCC 10894 [1]: >64
Minimum inhibitory concentration Aspergillus fumigatus ATCC 13073 [2]: >64
Minimum inhibitory concentration Aspergillus fumigatus ATCC 16424 [3]: >64
Protection against multi-drug resistant C. auris (larval survival) (C. auris strain TDG1912): no significant effect
MIC [4]: > 128 µg/mL
